From patent publication US9079843B2, “23-yne-vitamin D3 derivative” (TEIJIN PHARMA LIMITED, priority 2010, dated 2015)
Blank lines part the entries; values can stand above or below the compound they belong to.

Assays:
[1] = target: T1, VDR (Homo sapiens, UniProt P11473); assay: Evaluation of VDR affinity (PolarScreen Vitamin D Receptor Competitor Assay, fluorescence polarization)
T1 sequence (P11473 1-427): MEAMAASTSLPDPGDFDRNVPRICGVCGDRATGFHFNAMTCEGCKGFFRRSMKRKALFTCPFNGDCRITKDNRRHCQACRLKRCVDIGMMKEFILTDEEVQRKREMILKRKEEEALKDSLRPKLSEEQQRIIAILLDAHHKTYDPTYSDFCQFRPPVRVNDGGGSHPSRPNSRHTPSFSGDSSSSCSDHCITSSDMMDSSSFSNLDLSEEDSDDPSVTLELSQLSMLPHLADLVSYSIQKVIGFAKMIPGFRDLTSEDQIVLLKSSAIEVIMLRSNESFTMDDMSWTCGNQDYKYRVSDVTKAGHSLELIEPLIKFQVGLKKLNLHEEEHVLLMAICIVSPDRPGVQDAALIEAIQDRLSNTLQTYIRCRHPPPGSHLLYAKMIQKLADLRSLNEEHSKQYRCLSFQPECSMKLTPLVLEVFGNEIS
Description: VDR was evaluated by using a commercial measurement and evaluation kit, for example, “PolarScreen Vitamin D Receptor Competitor Assay, Red, Cat. No. PV4569” marketed by Invitrogen Corporation, according to the following procedure.
Solutions of the compounds were added to two wells each of a 384-well black plate in 10 μl aliquots. To each well, VDR/Fluoromone VDR Complex included in the kit was added in 10 μl aliquots and allowed to react at room temperature for 2 hours.

[2] = system: osteoporosis model (oophorectomy) rats; assay: Bone mineral density-enhancing effect in osteoporosis model (oophorectomy) rats; assay type: in vivo, rat; details: OVX rats, 5 times a week for 4 weeks, fourth and fifth lumbar vertebrae
Description: (§1) After 24 hours from the final administration, blood was drawn under ether anesthesia and the rats were put down. Under anesthesia, bone mineral density of the fourth and fifth lumbar vertebrae was measured by using a dual-energy X-ray bone mineral analyzer (QDR-2000; Hologic, Inc.). For comparison, a sham surgery (sham) group (abdominal operation is performed but the ovary is not removed; the test compounds are not administered) and an oophorectomy (OVX) group (subjected to oophorectomy but the test compounds are not administered) were also subjected to measurement of the bone mineral density of lumbar vertebrae at the time of dissection. Further, measurement of calcium concentration in the serum of each group was also performed.

[3] = target: T2, human VDR (Homo sapiens, UniProt P11473); assay: VDR transcriptional activity in human osteoblast (HOS cells), osteocalcin promoter luciferase reporter; assay type: cell-based; details: 24 hours incubation
T2 construct: expressed in transfected cells; host or cells: HOS cells (human osteoblast, ATCC)
T2 sequence (P11473 1-427): T1 sequence (P11473 1-427)
T2 sequence (P19793 1-462 partner): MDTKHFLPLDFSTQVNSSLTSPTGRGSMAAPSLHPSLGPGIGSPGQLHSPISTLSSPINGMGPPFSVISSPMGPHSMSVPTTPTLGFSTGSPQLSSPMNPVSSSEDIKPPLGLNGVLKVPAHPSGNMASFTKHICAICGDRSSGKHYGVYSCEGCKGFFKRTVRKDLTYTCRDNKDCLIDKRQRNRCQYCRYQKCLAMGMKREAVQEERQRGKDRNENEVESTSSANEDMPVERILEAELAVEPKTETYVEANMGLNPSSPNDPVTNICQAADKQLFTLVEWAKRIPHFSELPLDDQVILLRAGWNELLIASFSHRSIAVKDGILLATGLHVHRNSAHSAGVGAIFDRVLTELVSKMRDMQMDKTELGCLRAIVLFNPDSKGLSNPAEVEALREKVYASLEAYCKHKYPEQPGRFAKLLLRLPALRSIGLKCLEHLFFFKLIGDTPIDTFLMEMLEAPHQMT
From the text: (1) A reporter vector was constructed by inserting the sequence of the promoter region of human ostocalcin gene into the upstream of luciferase gene using a pGL3 vector (Promega Corporation), wherein the promoter region of the human ostocalcin gene was cloned using cDNA acquired from HOS cells (purchased from ATCC) by a method known in the literature (Ozono et al., The Journal of Biological Chemistry, 265, 21881-21888 (1990)). The expression vector was constructed by inserting a DNA sequence, which encodes human VDR and human RXR, into a pcDNA3 vector (Invitrogen Corporation). The HOS cells were incubated in a DMEM medium containing 10% FBS under conditions of 37° C. and 5% CO2, and subcultured every 2 or 3 days.
(2) The cells which had been subcultured were recovered by centrifugation and were suspended in serum- and phenol red-free DMEM medium in a density of 4×10^5 cells/mL. This was seeded on a 96-well plate in an amount of 0.1 mL/well. To this system, various vectors described in (1) were added in an amount of 0.05 mL per well using Lipofectamine 2000 (Invitrogen Corporation). After incubation at 37° C. for 3 hours, 2 μl each of ethanol solutions of the test compounds of various concentrations or ethanol as a control was added to each well. After incubation at 37° C. for 24 hours, the medium was removed, the cells were washed once with PBS(−), and thereafter luciferase activity was measured by using a luminometer (Berthold Technologies GmbH & Co. KG) using Dual-Glo Luciferase Assay Kit (Promega Corporation).

[4] = Serum calcium concentration in osteoporosis model (oophorectomy) rats; details: OVX rats; for Serum calcium value: 5 times a week for 4 weeks, 24 hours after final administration
Description: as §1

VDR affinity (in words) [1]: very strong VDR affinity
EC50 [3]: ≤ 0.2 nM
SMILES: C=C1C(=CC=C2CCCC3(C)C2CCC3C(C)CC#CC(C)(C)O)CC(O)C(OCCC(=O)O)C1O [Compound C-1, (5Z,7E)-(1R,2S,3R,20R)-2-(2-carboxyethoxy)-23-yne-9,10-seco-5,7,10(19)-cholestatriene-1,3,25-triol]
Bone mineral density ([2]; dose 4 ng/kg): 0.2223 ± 0.0118 g/mL
Bone mineral density ([2]; dose 10 ng/kg): 0.2400 ± 0.0065 g/mL

EC50 [3]: ≤ 0.2 nM
SMILES: C=C1C(=CC=C2CCCC3(C)C2CCC3C(C)CC#CC(C)(C)O)CC(O)C(OCCC(=O)OC)C1O [Compound C-2, (5Z,7E)-(1R,2S,3R,20R)-2-(2-methoxycarbonylethoxy)-23-yne-9,10-seco-5,7,10(19)-cholestatriene-1,3,25-triol]
Bone mineral density ([2]; dose 6 ng/kg): 0.2196 ± 0.0177 g/mL
Bone mineral density ([2]; dose 13 ng/kg): 0.2308 ± 0.0081 g/mL

EC50 [3]: ≤ 0.2 nM
SMILES: C=C1/C(=C\C=C2/CCC[C@@]3(C)C2CC[C@@H]3[C@H](C)CC#CC(C)(C)O)C[C@@H](O)[C@H](OCC2(C(=O)O)CC2)[C@@H]1O (stereo partly drawn) [Compound E-1, (5Z,7E)-(1R,2S,3R,20R)-2-((2-carboxy-2,2-ethano)ethoxy)-23-yne-9,10-seco-5,7,10 (19)-cholestatriene-1,3,25-triol]

EC50 [3]: ≤ 0.02 nM
SMILES: C=C1C(=CC=C2CCCC3(C)C2CCC3C(C)CC#CC2(O)CCCC2)CC(O)C(OCCC(=O)O)C1O [Compound F-2, (5Z,7E)-(1R,2S,3R,20R)-2-(2-carboxyethoxy)-26,27-nor-25-cyclopentyl-23-yne-9,10-seco-5,7,10(19)-cholestatriene-1,3,25-triol]

Serum calcium value ([4]; dose 6 ng/kg): 9.83 ± 0.22 mg/dL
Serum calcium value ([4]; dose 13 ng/kg): 10.07 ± 0.22 mg/dL
SMILES: C=C1/C(=C\C=C2/CCC[C@]3(C)[C@@H]([C@H](C)CC#CC(C)(C)O)CC[C@@H]23)C[C@@H](O)[C@H](OCCC(=O)OCOC(=O)C(C)(C)C)[C@@H]1O [Compound C-7, (5Z,7E)-(1R,2S,3R,20R)-2-((t-butylcarbonyloxy)methoxycarbonylethoxy)-23-yne-9,10-seco-5,7,10(19)-cholestatriene-1,3,25-triol]
Bone mineral density ([2]; dose 6 ng/kg): 0.2322 ± 0.0092 g/mL
Bone mineral density ([2]; dose 13 ng/kg): 0.2548 ± 0.0143 g/mL

Serum calcium value ([4]; dose 10 ng/kg): 10.30 ± 0.37 mg/dL
increase in the serum calcium value ([4]; dose 25 ng/kg necessary for bone mineral density equal to or greater than sham group): ≥ 1 mg/dL
Serum calcium value ([4]; dose 25 ng/kg): 11.20 ± 0.20 mg/dL
SMILES: C=C1/C(=C\C=C2/CCC[C@]3(C)[C@@H]([C@H](C)CCCC(C)(C)O)CC[C@@H]23)C[C@@H](O)[C@H](OCCCO)[C@@H]1O [2α-(3-hydroxypropyl)oxy-1α,25-dihydroxyvitamin D3, reference compound]
Bone mineral density ([2]; dose 10 ng/kg): 0.2269 ± 0.0161 g/mL
Bone mineral density ([2]; dose 25 ng/kg): 0.2473 ± 0.0157 g/mL

EC50 [3]: ≤ 0.02 nM
SMILES: C=C1C(=CC=C2CCCC3(C)C2CCC3C(C)CC#CC(O)(CC)CC)CC(O)C(OCCC(=O)O)C1O [Compound F-1, (5Z,7E)-(1R,2S,3R,20R)-2-(2-carboxyethoxy)-26,27-dimethyl-23-yne-9,10-seco-5,7,10(19)-cholestatriene-1,3,25-triol]
Bone mineral density ([2]; dose 6 ng/kg): 0.2366 ± 0.0139 g/mL

Serum calcium value ([4]; dose 17 ng/kg): 9.60 ± 0.15 mg/dL
Serum calcium value ([4]; dose 50 ng/kg): 10.10 ± 0.21 mg/dL
SMILES: C=C1/C(=C\C=C2/CCC[C@]3(C)[C@@H]([C@H](C)CC#CC(C)(C)O)CC[C@@H]23)C[C@@H](O)[C@H](OCCC(=O)OC(C)C)[C@@H]1O [Compound C-5, (5Z,7E)-(1R,2S,3R,20R)-2-(2-(1-methyl)ethoxycarbonylethoxy)-23-yne-9,10-seco-5,7,10(19)-cholestatriene-1,3,25-triol]
Bone mineral density ([2]; dose 17 ng/kg): 0.2316 ± 0.0134 g/mL
Bone mineral density ([2]; dose 50 ng/kg): 0.2354 ± 0.0126 g/mL

Serum calcium value ([4]; dose 50 ng/kg): 9.76 ± 0.29 mg/dL
SMILES: C=C1C(=CC=C2CCCC3(C)C2CCC3C(C)CC#CC(C)(C)O)CC(O)C(CC(C)C(=O)OC(C)(C)C)C1O [Compound D-6, (5Z,7E)-(1S,2S,3R,20R)-2-(2-(1,1-dimethyl)ethoxycarbonylpropyl)-23-yne-9,10-seco-5,7,10(19)-cholestatriene-1,3,25-triol]
Bone mineral density ([2]; dose 50 ng/kg): 0.2365 ± 0.0204 g/mL

VDR affinity (in words) [1]: very strong VDR affinity
EC50 [3]: ≤ 0.02 nM
SMILES: C=C1C(=CC=C2CCCC3(C)C2CCC3C(C)CC#CC(C)(C)O)CC(O)C(CCCC(=O)O)C1O [Compound D-1]
Bone mineral density ([2]; dose 6 ng/kg): 0.2211 ± 0.0175 g/mL
Bone mineral density ([2]; dose 13 ng/kg): 0.2360 ± 0.0143 g/mL
